Drawing on patent US9926282B2, “Phthalazinones and isoquinolinones as rock inhibitors” (BRISTOL-MYERS SQUIBB COMPANY, priority 2013, dated 2018), this text covers IC50 for 23 compounds.

In one experiment the target is ROCK2 (Homo sapiens (Human), UniProt O75116). Description: ROCK assay (LABCHIP peptide phosphorylation), ROCK2. The format is biochemical. Particulars: 5 μM ATP, 1.5 μM peptide substrate.
The target of the next experiment is ROCK1 (Homo sapiens (Human), UniProt Q13464). Description: ROCK assay (LABCHIP peptide phosphorylation), ROCK1. The experiment is classed as biochemical. Particulars: 5 μM ATP, 1.5 μM peptide substrate; read-out: ROCK1 IC50.
Sequence of ROCK1 (Q13464 whole entry, species assumed): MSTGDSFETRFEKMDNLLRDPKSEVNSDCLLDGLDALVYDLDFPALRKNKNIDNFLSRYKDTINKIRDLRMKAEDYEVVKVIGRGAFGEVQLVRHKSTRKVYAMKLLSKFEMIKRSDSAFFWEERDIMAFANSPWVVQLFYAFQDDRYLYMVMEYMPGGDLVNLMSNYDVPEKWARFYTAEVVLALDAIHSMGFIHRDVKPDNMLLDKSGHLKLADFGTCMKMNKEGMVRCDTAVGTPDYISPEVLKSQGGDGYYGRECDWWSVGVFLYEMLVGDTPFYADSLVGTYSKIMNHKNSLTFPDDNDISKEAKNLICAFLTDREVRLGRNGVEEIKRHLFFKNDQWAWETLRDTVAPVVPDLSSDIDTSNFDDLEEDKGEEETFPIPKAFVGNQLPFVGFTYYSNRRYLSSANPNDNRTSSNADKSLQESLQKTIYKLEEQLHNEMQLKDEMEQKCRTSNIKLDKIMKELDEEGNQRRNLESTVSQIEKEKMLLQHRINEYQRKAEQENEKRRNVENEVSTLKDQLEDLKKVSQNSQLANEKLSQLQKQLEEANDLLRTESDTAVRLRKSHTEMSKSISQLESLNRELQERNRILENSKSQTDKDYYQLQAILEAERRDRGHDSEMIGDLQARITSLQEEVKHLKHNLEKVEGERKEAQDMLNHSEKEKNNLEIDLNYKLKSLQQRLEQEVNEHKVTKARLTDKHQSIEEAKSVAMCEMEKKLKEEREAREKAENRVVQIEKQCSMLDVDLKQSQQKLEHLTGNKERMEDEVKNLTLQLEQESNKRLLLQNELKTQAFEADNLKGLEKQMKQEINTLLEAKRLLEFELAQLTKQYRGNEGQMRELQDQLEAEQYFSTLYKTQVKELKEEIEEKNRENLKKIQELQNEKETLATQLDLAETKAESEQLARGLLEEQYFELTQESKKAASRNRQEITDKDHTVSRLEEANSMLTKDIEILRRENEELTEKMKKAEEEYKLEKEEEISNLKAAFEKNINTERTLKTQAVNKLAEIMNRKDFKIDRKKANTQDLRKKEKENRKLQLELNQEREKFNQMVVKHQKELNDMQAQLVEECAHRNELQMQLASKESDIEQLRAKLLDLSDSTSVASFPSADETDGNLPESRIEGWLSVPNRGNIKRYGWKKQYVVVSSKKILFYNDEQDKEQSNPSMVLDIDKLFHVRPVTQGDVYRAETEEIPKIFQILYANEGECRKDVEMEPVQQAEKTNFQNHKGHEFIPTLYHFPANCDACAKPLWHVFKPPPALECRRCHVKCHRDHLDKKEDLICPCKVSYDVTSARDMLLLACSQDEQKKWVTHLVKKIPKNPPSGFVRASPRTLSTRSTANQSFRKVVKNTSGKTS

Sequence of ROCK2 (O75116 whole entry, species assumed): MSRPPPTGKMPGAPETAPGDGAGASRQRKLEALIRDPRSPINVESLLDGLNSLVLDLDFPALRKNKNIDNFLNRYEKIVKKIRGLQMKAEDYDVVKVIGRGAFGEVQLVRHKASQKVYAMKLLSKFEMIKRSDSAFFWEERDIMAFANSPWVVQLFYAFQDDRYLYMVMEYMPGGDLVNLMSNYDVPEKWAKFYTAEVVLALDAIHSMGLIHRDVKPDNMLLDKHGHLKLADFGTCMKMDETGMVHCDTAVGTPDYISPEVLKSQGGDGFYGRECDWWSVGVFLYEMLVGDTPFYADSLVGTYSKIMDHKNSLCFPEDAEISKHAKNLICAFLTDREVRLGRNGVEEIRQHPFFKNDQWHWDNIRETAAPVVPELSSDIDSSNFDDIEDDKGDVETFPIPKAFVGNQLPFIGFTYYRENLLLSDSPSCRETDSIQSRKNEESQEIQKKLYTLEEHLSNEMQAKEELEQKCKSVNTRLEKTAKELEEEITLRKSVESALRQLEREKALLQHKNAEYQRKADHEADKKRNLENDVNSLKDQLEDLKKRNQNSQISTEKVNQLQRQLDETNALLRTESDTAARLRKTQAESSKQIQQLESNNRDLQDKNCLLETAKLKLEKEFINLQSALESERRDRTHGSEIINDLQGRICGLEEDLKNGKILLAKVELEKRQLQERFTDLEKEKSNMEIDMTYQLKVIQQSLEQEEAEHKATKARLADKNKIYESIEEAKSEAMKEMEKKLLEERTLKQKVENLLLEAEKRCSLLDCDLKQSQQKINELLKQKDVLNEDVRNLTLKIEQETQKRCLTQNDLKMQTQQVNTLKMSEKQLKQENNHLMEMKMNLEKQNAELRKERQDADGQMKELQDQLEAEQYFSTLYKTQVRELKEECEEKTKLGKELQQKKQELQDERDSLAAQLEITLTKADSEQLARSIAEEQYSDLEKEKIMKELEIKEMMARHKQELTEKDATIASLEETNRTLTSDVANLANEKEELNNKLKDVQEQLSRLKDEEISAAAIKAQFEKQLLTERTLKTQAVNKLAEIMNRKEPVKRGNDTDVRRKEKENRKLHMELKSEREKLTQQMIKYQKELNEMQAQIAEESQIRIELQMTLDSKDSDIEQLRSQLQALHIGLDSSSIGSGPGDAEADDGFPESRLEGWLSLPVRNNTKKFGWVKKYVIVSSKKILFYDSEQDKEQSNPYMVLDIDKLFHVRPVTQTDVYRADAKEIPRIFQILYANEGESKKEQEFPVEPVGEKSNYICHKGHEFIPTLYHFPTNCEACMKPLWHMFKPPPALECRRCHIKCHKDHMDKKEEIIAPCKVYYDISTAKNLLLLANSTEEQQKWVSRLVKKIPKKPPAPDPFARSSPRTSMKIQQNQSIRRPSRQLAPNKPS

One may read the IC50 as the midpoint of a concentration-inhibition curve. Regarding `Cc1cc(CC(=O)N2Cc3ccccc3C2)ccc1-c1n[nH]c(=O)c2ccccc12` [Example 260, 4-(4-(2-(Isoindolin-2-yl)-2-oxoethyl)-2-methylphenyl)phthalazin-1(2H)-one], the IC50 at ROCK2 was 0.1 to 100 nM; on ROCK1, 101 to 1000 nM.

Turning to `O=C(Nc1ccc(-c2n[nH]c(=O)c3ccccc23)cc1)c1ncc(-c2ccncc2)s1` [Example 47, N-[4-(4-oxo-3,4-dihydrophthalazin-1-yl)phenyl]-5-(pyridin-4-yl)-1,3-thiazole-2-carboxamide], the values for the IC50 on ROCK2 and on ROCK1 were 0.1 to 100 nM and 101 to 1000 nM, respectively.

On to `COc1ccc2c(c1)CN(C(=O)Cc1ccc(-c3n[nH]c(=O)c4ccccc34)cc1)C2` [Example 3, 4-(4-(2-(5-Methoxyisoindolin-2-yl)-2-oxoethyl)phenyl)phthalazin-1(2H)-one], for which the figures for the IC50 on ROCK2 and on ROCK1 were 0.1 to 100 nM and 101 to 1000 nM, respectively.

Consider `O=C(Nc1ccc(-c2n[nH]c(=O)c3ccccc23)cc1)c1cnn2ccccc12` [Example 103, N-[4-(4-oxo-3,4-dihydrophthalazin-1-yl)phenyl]pyrazolo[1,5-a]pyridine-3-carboxamide], for which the IC50 against ROCK2 and at ROCK1 was 0.1 to 100 nM each time.

Take `O=C(Nc1ccc(-c2n[nH]c(=O)c3ccccc23)cc1)c1cnn(-c2ccc(Cl)cc2)c1` [Example 388, 1-(4-Chlorophenyl)-N-(4-(4-oxo-3,4-dihydrophthalazin-1-yl)phenyl)-1H-pyrazole-4-carboxamide]: the IC50 against ROCK2 was in the range of 0.1 to 100 nM; on ROCK1 it was 101 to 1000 nM.

In the case of `O=C(Nc1ccc(-c2n[nH]c(=O)c3ccccc23)cc1)c1onc2ccccc12` [Example 93, N-[4-(4-oxo-3,4-dihydrophthalazin-1-yl)phenyl]-2,1-benzoxazole-3-carboxamide], the IC50 against ROCK2 and at ROCK1 was 0.1 to 100 nM each time.

With `Cc1cc(NC(=O)Cc2ccc(-c3n[nH]c(=O)c4ccccc34)cc2)on1` [Example 26, N-(3-methyl-1,2-oxazol-5-yl)-2-[4-(4-oxo-3,4-dihydrophthalazin-1-yl)phenyl]acetamide], the IC50 against ROCK2 was in the range of 0.1 to 100 nM; at ROCK1, 1000 to 50000 nM.

For `COc1cc2c(-c3ccc(CC(=O)N4Cc5ccccc5C4)cc3)c[nH]c(=O)c2cc1OC` [Example 255, 4-(4-(2-(Isoindolin-2-yl)-2-oxoethyl)phenyl)-6,7-dimethoxyisoquinolin-1(2H)-one], the IC50 was in the range of 101 to 1000 nM against ROCK2 and 1000 to 50000 nM on ROCK1.

For `Cn1nc2ccccc2c1C(=O)Nc1ccc(-c2n[nH]c(=O)c3ccccc23)cc1` [Example 131, 2-methyl-N-[4-(4-oxo-3,4-dihydrophthalazin-1-yl)phenyl]-2H-indazole-3-carboxamide], the IC50 against ROCK2 and at ROCK1 was 0.1 to 100 nM in each case.

For `CC(C)(O)COc1ccc2c(C(=O)Nc3ccc(-c4n[nH]c(=O)c5ccccc45)cc3)cnn2c1` [Example 172, 6-(2-hydroxy-2-methylpropoxy)-N-[4-(4-oxo-3,4-dihydrophthalazin-1-yl)phenyl]pyrazolo[1,5-a]pyridine-3-carboxamide], the IC50 against ROCK2 and at ROCK1 was 0.1 to 100 nM each time.

With `Cn1nc(C(=O)Nc2ccc(-c3n[nH]c(=O)c4ccccc34)cc2)cc1C(C)(C)C` [Example 206, 5-tert-butyl-1-methyl-N-[4-(4-oxo-3,4-dihydrophthalazin-1-yl)phenyl]-1H-pyrazole-3-carboxamide], the IC50 against ROCK2 and on ROCK1 was 0.1 to 100 nM each time.

Consider `COc1ccc2c(=O)[nH]cc(-c3ccc(CC(=O)N4Cc5ccccc5C4)cc3)c2c1` [Example 262, 4-{4-[2-(2,3-Dihydro-1H-isoindol-2-yl)-2-oxoethyl]phenyl}-6-methoxy-1,2-dihydroisoquinolin-1-one], for which the figures for the IC50 against ROCK2 and at ROCK1 were 0.1 to 100 nM and 101 to 1000 nM, respectively.

In the case of `Cc1cc(NC(=O)c2nn(CC(C)(C)O)c3ccccc23)ccc1-c1n[nH]c(=O)c2ccccc12` [Example 301, 1-(2-hydroxy-2-methylpropyl)-N-[3-methyl-4-(4-oxo-3,4-dihydrophthalazin-1-yl)phenyl]-1H-indazole-3-carboxamide], the IC50 against ROCK2 and on ROCK1 was 0.1 to 100 nM in each case.

Regarding `Cn1nc(C2CC2)cc1C(=O)Nc1ccc(-c2n[nH]c(=O)c3ccccc23)cc1` [Example 407, 3-Cyclopropyl-1-methyl-N-(4-(4-oxo-3,4-dihydrophthalazin-1-yl)phenyl)-1H-pyrazole-5-carboxamide], the IC50 against ROCK2 and at ROCK1 was 0.1 to 100 nM throughout.

`Cc1nnc(NC(=O)Cc2ccc(-c3n[nH]c(=O)c4ccccc34)cc2)s1` [Example 31, N-(5-methyl-1,3,4-thiadiazol-2-yl)-2-[4-(4-oxo-3,4-dihydrophthalazin-1-yl)phenyl]acetamide]: the IC50 on ROCK2 was 0.1 to 100 nM; at ROCK1, 1000 to 50000 nM.

As to `O=C(Nc1ccc(-c2n[nH]c(=O)c3ccccc23)cc1)c1ncn(-c2ccccn2)n1` [Example 240, N-[4-(4-oxo-3,4-dihydrophthalazin-1-yl)phenyl]-1-(pyridin-2-yl)-1H-1,2,4-triazole-3-carboxamide], the IC50 lay within 0.1 to 100 nM against ROCK2 and 101 to 1000 nM at ROCK1.

In the case of `Cc1nc(N2CCCc3ccccc32)sc1C(=O)Nc1ccc(-c2n[nH]c(=O)c3ccccc23)cc1` [Example 241, 4-methyl-N-[4-(4-oxo-3,4-dihydrophthalazin-1-yl)phenyl]-2-(1,2,3,4-tetrahydroquinolin-1-yl)-1,3-thiazole-5-carboxamide], the IC50 on ROCK2 and at ROCK1 was 0.1 to 100 nM throughout.

Take `O=C(Nc1ccc(-c2n[nH]c(=O)c3ccccc23)cc1)c1ccc(N2CCCC2)cc1` [Example 60]: the IC50 against ROCK2 and on ROCK1 was 0.1 to 100 nM throughout.

Consider `O=C(Nc1ccc(-c2c[nH]c(=O)c3ccccc23)cc1)c1ccc(N2CCCC2)cc1` [Example 251, N-(4-(1-Oxo-1,2-dihydroisoquinolin-4-yl)phenyl)-4-(pyrrolidin-1-yl)benzamide], for which the IC50 on ROCK2 fell in the range of 0.1 to 100 nM; on ROCK1 it was 101 to 1000 nM.

`O=C(Nc1ccc(-c2n[nH]c(=O)c3ccccc23)cc1)C1CC(=O)N(c2ccccc2)C1` (stereo not shown) [Example 217, 5-oxo-N-[4-(4-oxo-3,4-dihydrophthalazin-1-yl)phenyl]-1-phenylpyrrolidine-3-carboxamide]: the IC50 is 101 to 1000 nM on ROCK2 and 1000 to 50000 nM on ROCK1.

In the case of `Cc1cc(NC(=O)c2cnn3cc(OCCN4CCCC4)ccc23)ccc1-c1n[nH]c(=O)c2ccccc12` [Example 325, N-[3-methyl-4-(4-oxo-3,4-dihydrophthalazin-1-yl)phenyl]-6-[2-(pyrrolidin-1-yl)ethoxy] pyrazolo[1,5-a]pyridine-3-carboxamide], the IC50 at ROCK2 fell in the range of 0.1 to 100 nM; on ROCK1, 101 to 1000 nM.

`O=C(Nc1ccc(-c2n[nH]c(=O)c3ccccc23)c(CO)c1)c1nn(CC2CCCO2)c2ccccc12` (stereo not shown) [Example 367, N-(3-(Hydroxymethyl)-4-(4-oxo-3,4-dihydrophthalazin-1-yl)phenyl)-1-((tetrahydrofuran-2-yl)methyl)-1H-indazole-3-carboxamide]: the IC50 against ROCK2 was in the range of 0.1 to 100 nM; on ROCK1 it was 1000 to 50000 nM.

As for `O=C(Oc1ccc(-c2n[nH]c(=O)c3ccccc23)cc1)N1CCC(c2ccccc2)C1` (stereo not shown) [Example 69, 4-(4-Oxo-3,4-dihydrophthalazin-1-yl)phenyl 3-phenylpyrrolidine-1-carboxylate], the IC50 was in the range of 101 to 1000 nM on ROCK2 and 1000 to 50000 nM at ROCK1.
